Results reported in US11582970B2, “2-aminoimidazole-phenyl derivatives useful for controlling microbial growth” (NORTH CAROLINA STATE UNIVERSITY, priority 2017, dated 2023).
Where two headings read alike, the source gives them in different places. One block for each compound: values may come before it.

Columns and labels:
Format in all cases: cell-based
[1] = tested on: A. baumannii (Ab) AR# 52; assay: MIC of meropenem in combination with compound, CDC carbapenem resistant strain
Protocol: (§1) EXAMPLE 2: Six compounds were assessed for their activity in combination with meropenem against carbapenem resistant strains of A. baumannii (Ab), K. pneumoniae (Kp), and E. coli acquired from the Center for Disease Control (CDC). AR #—assigned AR-BANK number from the CDC.

[2] = tested on: A. baumannii (Ab) AR# 37; assay: as above
Protocol: as §1

[3] = tested on: A. baumannii (Ab) AR# 83; assay: as above
Protocol: as §1

[4] = tested on: A. baumannii (Ab) AR# 36; assay: as above
Protocol: as §1

[5] = tested on: K. pneumoniae (Kp) AR# 40; assay: as above
Protocol: as §1

[6] = tested on: A. baumannii (Ab) AR# 45; assay: as above
Protocol: as §1

[7] = tested on: K. pneumoniae (Kp) AR# 98; assay: as above
Protocol: as §1

[8] = tested on: E. coli AR# 55; assay: as above
Protocol: as §1

[9] = tested on: E. coli AR# 48; assay: as above
Protocol: as §1

[10] = tested on: A. baumannii (Ab) AR# 35; assay: as above
Protocol: as §1

[11] = tested on: A. baumannii (Ab) AR# 70; assay: as above
Protocol: as §1

[12] = tested on: A. baumannii (Ab) AR# 56; assay: as above
Protocol: as §1

[13] = tested on: A. baumannii (Ab) AR# 88; assay: as above
Protocol: as §1

[14] = tested on: A. baumannii (Ab) AR# 33; assay: as above
Protocol: as §1

[15] = tested on: K. pneumoniae (Kp) AR# 68; assay: as above
Protocol: as §1

[16] = tested on: A. baumannii (Ab) AR# 63; assay: as above
Protocol: as §1

[17] = tested on: K. pneumoniae (Kp) AR# 41; assay: as above
Protocol: as §1

[18] = tested on: A. baumannii ATCC BAA-1605; assay: MIC of carbapenems in presence and absence of 2-aminoimidazole compounds; conditions: Acinetobacter baumannii, no 2-AI compound (None)
From the text: (§2) The minimal inhibitory concentration (MIC) values of imipenem (I); meropenem (M) and doripenem (D) in the presence and absence of 2-aminoimidazole compounds are provided in Table 1. The concentration of each compound used in μM in the MIC assay is shown in parentheses.

[19] = tested on: A. baumannii AB5075; assay: as above; conditions: Acinetobacter baumannii, no 2-AI compound (None)
From the text: as §2

[20] = tested on: K. pneumoniae ATCC BAA-1705; assay: as above; conditions: Klebsiella pneumoniae, no 2-AI compound (None)
From the text: as §2

[21] = tested on: K. pneumoniae ATCC BAA-2146; assay: as above; conditions: Klebsiella pneumoniae, no 2-AI compound (None)
From the text: as §2

[22] = 15 μM of 2-amino imidazole compound
[23] = 30 μM of 2-amino imidazole compound
[24] = 64 μM of 2-amino imidazole compound
[25] = 7 μM of 2-amino imidazole compound
[26] = 32 μM of 2-amino imidazole compound
[27] = 4 μM of 2-amino imidazole compound
[28] = 2 μM of 2-amino imidazole compound
[29] = 60 μM of 2-amino imidazole compound
[30] = 16 μM of 2-amino imidazole compound
[31] = 8 μM of 2-amino imidazole compound

Structure (SMILES): CCCc1ccc(NC(=O)Nc2cccc(-c3cnc(N)[nH]3)c2)cc1 [Compound 2, 1-(3-(2-amino-1H-imidazol-5-yl)phenyl)-3-(4-propylphenyl)urea]
Minimum Inhibitory Concentration of Meropenem [1, 22]: 1.5 (15) μg/mL | Minimum Inhibitory Concentration of Meropenem [2, 22]: 64 (15) μg/mL | Minimum Inhibitory Concentration of Meropenem [3, 22]: 96 (15) μg/mL | Minimum Inhibitory Concentration of Meropenem [4, 23]: 4 (30) μg/mL | Minimum Inhibitory Concentration of Meropenem [5, 24]: 1024 (64) μg/mL | Minimum Inhibitory Concentration of Meropenem [6, 22]: 1.5 (15) μg/mL | Minimum Inhibitory Concentration of Meropenem [7, 24]: 64 (64) μg/mL | Minimum Inhibitory Concentration of Meropenem [8, 24]: 64 (64) μg/mL | Minimum Inhibitory Concentration of Meropenem [9, 24]: 128 (64) μg/mL | Minimum Inhibitory Concentration of Meropenem [10, 22]: 16 (15) μg/mL | Minimum Inhibitory Concentration of Meropenem [11, 25]: 2 (7) μg/mL | Minimum Inhibitory Concentration of Meropenem [12, 22]: 8 (15) μg/mL | Minimum Inhibitory Concentration of Meropenem [13, 22]: 128 (15) μg/mL | Minimum Inhibitory Concentration of Meropenem [14, 22]: 32 (15) μg/mL | Minimum Inhibitory Concentration of Meropenem [15, 26]: 256 (32) μg/mL | Minimum Inhibitory Concentration of Meropenem [16, 23]: 8 (30) μg/mL | Minimum Inhibitory Concentration of Meropenem [17, 24]: 32 (64) μg/mL

Structure (SMILES): Nc1ncc(-c2cccc(NC(=O)Nc3cc(Br)cc(Br)c3)c2)[nH]1 [Compound 7, 1-(3-(2-amino-1H-imidazol-5-yl)phenyl)-3-(3,5-dibromophenyl)urea]
Minimum Inhibitory Concentration of Meropenem [1, 27]: 2 (4) μg/mL | Minimum Inhibitory Concentration of Meropenem [2, 25]: 32 (7) μg/mL | Minimum Inhibitory Concentration of Meropenem [3, 22]: 24 (15) μg/mL | Minimum Inhibitory Concentration of Meropenem [4, 25]: 8 (7) μg/mL | Minimum Inhibitory Concentration of Meropenem [5, 22]: 64 (15) μg/mL | Minimum Inhibitory Concentration of Meropenem [6, 22]: 1 (15) μg/mL | Minimum Inhibitory Concentration of Meropenem [7, 25]: 64 (7) μg/mL | Minimum Inhibitory Concentration of Meropenem [8, 22]: 64 (15) μg/mL | Minimum Inhibitory Concentration of Meropenem [9, 22]: 64 (15) μg/mL | Minimum Inhibitory Concentration of Meropenem [10, 23]: 32 (30) μg/mL | Minimum Inhibitory Concentration of Meropenem [11, 28]: 4 (2) μg/mL | Minimum Inhibitory Concentration of Meropenem [12, 22]: 8 (15) μg/mL | Minimum Inhibitory Concentration of Meropenem [13, 22]: 64 (15) μg/mL | Minimum Inhibitory Concentration of Meropenem [14, 22]: 16 (15) μg/mL | Minimum Inhibitory Concentration of Meropenem [15, 25]: 128 (7) μg/mL | Minimum Inhibitory Concentration of Meropenem [16, 27]: 32 (4) μg/mL | Minimum Inhibitory Concentration of Meropenem [17, 22]: 8 (15) μg/mL

Structure (SMILES): Cc1nc(N)[nH]c1-c1cccc(NC(=O)Nc2ccc(C(F)(F)F)c(Cl)c2)c1 [Compound 68, 1-(3-(2-amino-4-methyl-1H-imidazol-5-yl)phenyl)-3-(3-chloro-4-(trifluoromethyl)phenyl)urea]
Minimum Inhibitory Concentration of Meropenem [1, 27]: 4 (4) μg/mL | Minimum Inhibitory Concentration of Meropenem [2, 27]: 64 (4) μg/mL | Minimum Inhibitory Concentration of Meropenem [3, 27]: 64 (4) μg/mL | Minimum Inhibitory Concentration of Meropenem [4, 27]: 48 (4) μg/mL | Minimum Inhibitory Concentration of Meropenem [5, 25]: 64 (7) μg/mL | Minimum Inhibitory Concentration of Meropenem [6, 27]: 3 (4) μg/mL | Minimum Inhibitory Concentration of Meropenem [7, 25]: 32 (7) μg/mL | Minimum Inhibitory Concentration of Meropenem [8, 27]: 64 (4) μg/mL | Minimum Inhibitory Concentration of Meropenem [9, 27]: 128 (4) μg/mL | Minimum Inhibitory Concentration of Meropenem [10, 27]: 64 (4) μg/mL | Minimum Inhibitory Concentration of Meropenem [11, 27]: 1 (4) μg/mL | Minimum Inhibitory Concentration of Meropenem [12, 27]: 4 (4) μg/mL | Minimum Inhibitory Concentration of Meropenem [13, 27]: 64 (4) μg/mL | Minimum Inhibitory Concentration of Meropenem [14, 27]: 64 (4) μg/mL | Minimum Inhibitory Concentration of Meropenem [15, 25]: 128 (7) μg/mL | Minimum Inhibitory Concentration of Meropenem [16, 28]: 128 (2) μg/mL | Minimum Inhibitory Concentration of Meropenem [17, 27]: 64 (4) μg/mL

Structure (SMILES): Nc1ncc(-c2cccc(NC(=O)Nc3cccc(-c4cnc(N)[nH]4)c3)c2)[nH]1 [Compound 92, 1,3-bis(3-(2-amino-1H-imidazol-5-yl)phenyl)urea]
Minimum Inhibitory Concentration of Meropenem [1, 28]: 2 (2) μg/mL | Minimum Inhibitory Concentration of Meropenem [2, 22]: 32 (15) μg/mL | Minimum Inhibitory Concentration of Meropenem [3, 22]: 64 (15) μg/mL | Minimum Inhibitory Concentration of Meropenem [4, 22]: 4 (15) μg/mL | Minimum Inhibitory Concentration of Meropenem [5, 29]: 256 (60) μg/mL | Minimum Inhibitory Concentration of Meropenem [6, 25]: 2 (7) μg/mL | Minimum Inhibitory Concentration of Meropenem [7, 29]: 64 (60) μg/mL | Minimum Inhibitory Concentration of Meropenem [8, 22]: 128 (15) μg/mL | Minimum Inhibitory Concentration of Meropenem [9, 25]: 256 (7) μg/mL | Minimum Inhibitory Concentration of Meropenem [10, 23]: 8 (30) μg/mL | Minimum Inhibitory Concentration of Meropenem [11, 28]: 4 (2) μg/mL | Minimum Inhibitory Concentration of Meropenem [12, 22]: 8 (15) μg/mL | Minimum Inhibitory Concentration of Meropenem [13, 22]: 64 (15) μg/mL | Minimum Inhibitory Concentration of Meropenem [14, 22]: 12 (15) μg/mL | Minimum Inhibitory Concentration of Meropenem [15, 23]: 64 (30) μg/mL | Minimum Inhibitory Concentration of Meropenem [16, 25]: 8 (7) μg/mL | Minimum Inhibitory Concentration of Meropenem [17, 29]: 64 (60) μg/mL

Structure (SMILES): Nc1ncc(-c2ccc(NC(=O)Nc3ccc(-c4cnc(N)[nH]4)cc3)cc2)[nH]1 [Compound 93, 1,3-bis(4-(2-amino-1H-imidazol-5-yl)phenyl)urea]
Minimum Inhibitory Concentration of Meropenem [1, 27]: 3 (4) μg/mL | Minimum Inhibitory Concentration of Meropenem [2, 25]: 64 (7) μg/mL | Minimum Inhibitory Concentration of Meropenem [3, 22]: 64 (15) μg/mL | Minimum Inhibitory Concentration of Meropenem [4, 22]: 16 (15) μg/mL | Minimum Inhibitory Concentration of Meropenem [5, 24]: 1024 (64) μg/mL | Minimum Inhibitory Concentration of Meropenem [6, 25]: 2 (7) μg/mL | Minimum Inhibitory Concentration of Meropenem [7, 26]: 32 (32) μg/mL | Minimum Inhibitory Concentration of Meropenem [8, 30]: 128 (16) μg/mL | Minimum Inhibitory Concentration of Meropenem [9, 26]: 16 (32) μg/mL | Minimum Inhibitory Concentration of Meropenem [10, 22]: 32 (15) μg/mL | Minimum Inhibitory Concentration of Meropenem [11, 25]: 1 (7) μg/mL | Minimum Inhibitory Concentration of Meropenem [12, 22]: 16 (15) μg/mL | Minimum Inhibitory Concentration of Meropenem [13, 25]: 64 (7) μg/mL | Minimum Inhibitory Concentration of Meropenem [14, 25]: 64 (7) μg/mL | Minimum Inhibitory Concentration of Meropenem [15, 26]: 32 (32) μg/mL | Minimum Inhibitory Concentration of Meropenem [16, 22]: 8 (15) μg/mL | Minimum Inhibitory Concentration of Meropenem [17, 24]: 8 (64) μg/mL

Structure (SMILES): Nc1ncc(-c2ccc(NC(=O)Nc3ccc4c(c3)-c3[nH]c(N)nc3CC4)cc2)[nH]1 [Compound 97, 1-(4-(2-amino-1H-imidazol-5-yl)phenyl)-3-(2-amino-4,5-dihydro-1H-naphtho[1,2-d]imidazol-8-yl)urea]
Minimum Inhibitory Concentration of Meropenem [1, 28]: 2 (2) μg/mL | Minimum Inhibitory Concentration of Meropenem [2, 31]: 32 (8) μg/mL | Minimum Inhibitory Concentration of Meropenem [3, 31]: 16 (8) μg/mL | Minimum Inhibitory Concentration of Meropenem [4, 31]: 1 (8) μg/mL | Minimum Inhibitory Concentration of Meropenem [5, 24]: 1024 (64) μg/mL | Minimum Inhibitory Concentration of Meropenem [6, 31]: 1 (8) μg/mL | Minimum Inhibitory Concentration of Meropenem [7, 30]: 32 (16) μg/mL | Minimum Inhibitory Concentration of Meropenem [8, 26]: 256 (32) μg/mL | Minimum Inhibitory Concentration of Meropenem [9, 30]: 128 (16) μg/mL | Minimum Inhibitory Concentration of Meropenem [10, 31]: 2 (8) μg/mL | Minimum Inhibitory Concentration of Meropenem [11, 31]: 0.5 (8) μg/mL | Minimum Inhibitory Concentration of Meropenem [12, 31]: 2 (8) μg/mL | Minimum Inhibitory Concentration of Meropenem [13, 30]: 32 (16) μg/mL | Minimum Inhibitory Concentration of Meropenem [14, 30]: 4 (16) μg/mL | Minimum Inhibitory Concentration of Meropenem [15, 26]: 64 (32) μg/mL | Minimum Inhibitory Concentration of Meropenem [16, 31]: 8 (8) μg/mL | Minimum Inhibitory Concentration of Meropenem [17, 24]: 16 (64) μg/mL

MIC ([18]; read-out: MIC of doripenem (D)): 32 µg/mL | MIC ([19]; read-out: MIC of doripenem (D)): 32 µg/mL | MIC ([20]; read-out: MIC of doripenem (D)): 64 µg/mL | MIC ([21]; read-out: MIC of doripenem (D)): 256 µg/mL
Structure (SMILES): C[C@@H](O)[C@H]1C(=O)N2C(C(=O)O)=C(S[C@@H]3CN[C@H](CNS(N)(=O)=O)C3)[C@H](C)[C@H]12 [D, doripenem]

MIC ([18]; read-out: MIC of imipenem (I)): 32 µg/mL | MIC ([19]; read-out: MIC of imipenem (I)): 32 µg/mL | MIC ([20]; read-out: MIC of imipenem (I)): 64 µg/mL | MIC ([21]; read-out: MIC of imipenem (I)): 128 µg/mL
Structure (SMILES): C[C@@H](O)[C@H]1C(=O)N2C(C(=O)O)=C(SCCN=CN)C[C@H]12 [I, imipenem]
